Toxic doses and inconclusive results are not listed.
Tested on: CD2F1 mice, L1210 leukemia ip, survival T/C
Test: NCI In Vivo Anticancer Drug Screen. Data for tumor model L1210 Leukemia (intraperitoneal) in CD2F1 (CDF1) mice
Settings: endpoint: mean survival time, higher = longer survival
Summary of the method: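 Activity against a transplanted murine tumor was judged by comparing the compound group with a vehicle group. The outcome in the treated animals was divided by that in the controls.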

[1] = dose: 50.0 mg/kg/injection, schedule: Q01DX009 (ip), vehicle: saline
[2] = dose: 100.0 mg/kg/injection, schedule: Q01DX009 (ip), vehicle: saline
[3] = dose: 100.0 mg/kg/injection, schedule: Q04DX003 (ip), vehicle: saline with Tween-80
[4] = dose: 200.0 mg/kg/injection, schedule: Q04DX003 (ip), vehicle: saline with Tween-80
[5] = dose: 400.0 mg/kg/injection, schedule: Q04DX003 (ip), vehicle: saline with Tween-80
[6] = dose: 100.0 mg/kg/injection, schedule: Q04DX002 (ip), vehicle: saline with Tween-80
[7] = dose: 200.0 mg/kg/injection, schedule: Q04DX002 (ip), vehicle: saline with Tween-80
[8] = dose: 400.0 mg/kg/injection, schedule: Q04DX002 (ip), vehicle: saline with Tween-80
[9] = dose: 100.0 mg/kg/injection, schedule: Q01DX009 (ip), vehicle: saline with Tween-80
[10] = dose: 200.0 mg/kg/injection, schedule: Q01DX009 (ip), vehicle: saline with Tween-80
[11] = dose: 400.0 mg/kg/injection, schedule: Q01DX009 (ip), vehicle: saline with Tween-80

Compound: Cc1cc(O)c(N=Nc2ccc(C(=O)O)cc2)cc1C
- T/C (dose: 12.5 mg/kg/injection, schedule: Q01DX009 (ip), vehicle: saline): 106 % of control
- T/C (dose: 12.5 mg/kg/injection, schedule: Q01DX009 (ip), vehicle: suspension in saline): 97 % of control
- T/C (dose: 25.0 mg/kg/injection, schedule: Q01DX009 (ip), vehicle: saline): 110 % of control
- T/C (dose: 25.0 mg/kg/injection, schedule: Q01DX009 (ip), vehicle: suspension in saline): 101 % of control
- T/C [1]: 111 % of control
- T/C (dose: 50.0 mg/kg/injection, schedule: Q01DX009 (ip), vehicle: suspension in saline): 95 % of control
- T/C [2]: 94 % of control
- T/C (dose: 100.0 mg/kg/injection, schedule: Q01DX009 (ip), vehicle: suspension in saline): 94 % of control
- T/C (dose: 200.0 mg/kg/injection, schedule: Q01DX009 (ip), vehicle: suspension in saline): 97 % of control
- T/C (dose: 400.0 mg/kg/injection, schedule: Q01DX009 (ip), vehicle: saline): 93 % of control
- T/C (dose: 400.0 mg/kg/injection, schedule: Q01DX009 (ip), vehicle: suspension in saline): 101 % of control

Compound: NC(=S)N/N=C/c1ccccn1
- T/C (dose: 1.56 mg/kg/injection, schedule: Q04DX002 (ip), vehicle: Klucel (hydroxypropylcellulose) (HPC)): 108 % of control
- T/C (dose: 3.12 mg/kg/injection, schedule: Q04DX002 (ip), vehicle: Klucel (hydroxypropylcellulose) (HPC)): 112 % of control
- T/C (dose: 6.25 mg/kg/injection, schedule: Q04DX002 (ip), vehicle: Klucel (hydroxypropylcellulose) (HPC)): 92 % of control
- T/C (dose: 6.7 mg/kg/injection, schedule: Q01DX009 (ip), vehicle: saline with Tween-80): 151 % of control
- T/C (dose: 10.0 mg/kg/injection, schedule: Q01DX009 (ip), vehicle: saline with Tween-80): 107 % of control
- T/C (dose: 15.0 mg/kg/injection, schedule: Q01DX009 (ip), vehicle: saline with Tween-80): 93 % of control

Compound: CSC(=S)N(C)/N=C/c1cccc(C)n1
- T/C [3]: 96 % of control
- T/C [4]: 102 % of control
- T/C [5]: 102 % of control

Compound: COc1ccc(OC)c(C2=CCCCCC2)c1
- T/C [3]: 101 % of control
- T/C [4]: 102 % of control
- T/C [5]: 90 % of control

Compound: O=S(=O)(O)/[N+]([O-])=N/O
- T/C (dose: 100.0 mg/kg/injection, schedule: Q01DX009 (ip), vehicle: saline sonified): 103 % of control
- T/C (dose: 200.0 mg/kg/injection, schedule: Q01DX009 (ip), vehicle: saline sonified): 95 % of control
- T/C (dose: 400.0 mg/kg/injection, schedule: Q01DX009 (ip), vehicle: saline sonified): 101 % of control

Compound: CCOC1CS(=O)(=O)CC(OCC)O1 (stereo not drawn)
- T/C [3]: 101 % of control
- T/C [4]: 109 % of control
- T/C [5]: 101 % of control

Compound: CCOC(=O)Nc1cccc(F)c1C
- T/C [6]: 105 % of control
- T/C [7]: 109 % of control
- T/C [8]: 94 % of control

Compound: NC(=O)SCC(N)C(=O)O (stereo not drawn)
- T/C [1]: 101 % of control
- T/C [2]: 101 % of control
- T/C (dose: 200.0 mg/kg/injection, schedule: Q01DX009 (ip), vehicle: saline): 109 % of control
- T/C (dose: 300.0 mg/kg/injection, schedule: Q01DX009 (ip), vehicle: saline): 107 % of control

Compound: CC(=O)Nc1ccccc1OC(=O)OCC(Cl)(Cl)Cl
- T/C [9]: 96 % of control
- T/C [10]: 96 % of control
- T/C [11]: 101 % of control

Compound: CCCCCCCCCCCCCCCC(=O)Nc1ccccc1CC
- T/C [6]: 91 % of control
- T/C [7]: 95 % of control
- T/C [8]: 103 % of control

Compound: COc1cc(Cl)ccc1NC(=O)Oc1c(OC)cccc1OC
- T/C [9]: 100 % of control
- T/C [10]: 106 % of control
- T/C [11]: 103 % of control

Compound: COc1ccc(/C=C/c2ccc([N+](=O)[O-])cc2)cc1
- T/C [3]: 102 % of control
- T/C [4]: 100 % of control
- T/C [5]: 100 % of control

Compound: CN(C)/N=C/c1cccc(CC(O)(C(F)(F)F)C(F)(F)F)n1
- T/C (dose: 50.0 mg/kg/injection, schedule: Q01DX009 (ip), vehicle: saline with Tween-80): 94 % of control
- T/C (dose: 100.0 mg/kg/injection, schedule: Q01DX001 (ip), vehicle: saline with Tween-80): 105 % of control
- T/C [9]: 96 % of control
- T/C (dose: 200.0 mg/kg/injection, schedule: Q01DX001 (ip), vehicle: saline with Tween-80): 100 % of control
- T/C [10]: 97 % of control
